Values quoted from earlier work in patent EP2732812A1, “Pramipexole retard tablet formulation” (Aristo Pharma GmbH, priority 2012, dated 2014).
Where a name gives a salt, the structure may show the parent alone.

CCCN[C@H]1CCc2nc(N)sc2C1 [Pramipexoldihydrochlorid Monohydrat]
Löslichkeit In Puffer (buffer, pH-Wert von 2,0 bis 7,4): > 10 mg/mL | Löslichkeit In Wasser (in water): > 20 mg/mL
